From patent US11613531B2, “Inhibitors of RHO associated coiled-coil containing protein kinase” (Kadmon Corporation, LLC, priority 2017, dated 2023)
Read-outs that look alike come from different tables or passages of the source.

Legend:
[1] = target: Recombinant ROCK2 (amino acids 1-552) (Homo sapiens (Human), UniProt O75116); assay: Z′-Lyte kinase assay, ROCK2; assay type: biochemical; settings: for inhibition at 1 µM: 1 μM compound, read-out: ROCK2 % inh. @ [conc]
Description: Determination of Compound's ROCK Inhibitory Activity In Vitro (Z'Lyte Assay).
Recombinant ROCK1 (amino acids 1-535) and ROCK2 (amino acids 1-552) proteins were purchased from ThermoFisher Scientific. Compound's activities were measured by Z′-lyte kinase kit (ThermoFisher Scientific) and IC50 was calculated
In vitro activities for the compounds were measured with Z′-lyte kinase kit (ThermoFisher Scientific). The percent inhibition rate was calculated by normalizing the kinase activity value obtained with 1 μM compound treatment against DMSO control value and then applied to the formula, [1-(compound/DMSO)]×100%. IC50s were calculated using the nonlinear regression curve fit function of the GraphPad Prism software with kinase activities data measured with 9 points 2-fold serial dilution of compounds treatment. In cell pMLC IC50s were calculated with data obtained from A7R5 cell experiments. A7R5 cells were treated with 9 points 2-fold serial dilution of compounds and ppMlc (T18/S19) levels were determined to calculate cellular IC50 values of the compounds using the nonlinear regression curve fit function of the GraphPad Prism software. NIH3T3 cells stably expressing ACTA2-promoter-driven-luciferase were applied to measure ROCK compounds functional IC50s in cells. Cells were plated in 96 well plates to confluence and treated with 9 points serial dilution of compounds in combination with TGFβ1 for 24 hr. Luciferase activities were measured and compound's IC50s were calculated using the nonlinear regression curve fit function of the GraphPad Prism software.

[2] = system: ppMlc (T18/S19) levels in A7R5 cells; assay: A7R5 in-cell ELISA (pMLC); assay type: cell-based, Rat; settings: Rattus norvegicus, A7R5, A7R5 cells; for inhibition at 10 µM: 10 μM compound; for inhibition at 10 µM / inhibition at 1 µM: read-out: pMLC % inh A7R5 @ [conc]; for inhibition at 1 µM: 1 μM compound; for IC50: ppMlc (T18/S19)
Outline: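 Cellular IC50 came from a nonlinear regression fit of ppMlc (T18/S19) signal, read by colorimetric in-cell ELISA on fixed cells. Rat A7R5 aortic smooth muscle cells had been exposed for 90 min to compounds in 9-point 2-fold serial dilution, 24 h after seeding.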

[3] = 9 points 2-fold serial dilution

Sequence of Recombinant ROCK2 (amino acids 1-552) (O75116 1-552): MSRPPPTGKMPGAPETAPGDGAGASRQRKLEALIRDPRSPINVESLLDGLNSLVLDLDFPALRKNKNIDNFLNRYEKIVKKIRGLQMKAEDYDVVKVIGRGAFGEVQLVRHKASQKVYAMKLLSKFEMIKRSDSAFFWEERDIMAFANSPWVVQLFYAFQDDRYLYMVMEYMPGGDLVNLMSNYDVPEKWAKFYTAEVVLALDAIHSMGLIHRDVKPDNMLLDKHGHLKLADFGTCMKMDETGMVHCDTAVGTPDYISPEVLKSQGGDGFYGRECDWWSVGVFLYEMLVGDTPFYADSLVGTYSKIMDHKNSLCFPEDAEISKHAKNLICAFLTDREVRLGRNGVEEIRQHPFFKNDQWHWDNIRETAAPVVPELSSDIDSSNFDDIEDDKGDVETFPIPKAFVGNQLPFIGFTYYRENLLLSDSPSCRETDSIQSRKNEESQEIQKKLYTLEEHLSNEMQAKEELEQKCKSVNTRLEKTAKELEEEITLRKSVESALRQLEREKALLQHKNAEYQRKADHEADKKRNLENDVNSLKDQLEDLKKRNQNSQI

Structure (SMILES)	inhibition at 1 µM [1] [%]	inhibition at 10 µM [2] [%]	inhibition at 1 µM [2] [%]	also measured
COc1cnc(N2CCCNCC2)nc1Nc1ccc(-c2cn[nH]c2)cc1 [Example 267, N-(4-(1H-pyrazol-4-yl)phenyl)-2-(1,4-diazepan-1-yl)-5-methoxypyrimidin-4-amine]	52.3	70		
CC1CNCCN(c2ncc(Cl)c(Nc3ccc4[nH]ncc4c3)n2)C1 (stereo not shown) [Example 193, N-(5-chloro-2-(6-methyl-1,4-diazepan-1-yl)pyrimidin-4-yl)-1H-indazol-5-amine]	84.4		32.5	IC50 [1, 3]: 282 nM; IC50 [2]: 788 nM
c1ccc2c(c1)C(C1CCNCC1)CN2c1nccc(Nc2ccc3[nH]ncc3c2)n1 (stereo not shown) [Example 88, N-(2-(3-(piperidin-4-yl)indolin-1-yl)pyrimidin-4-yl)-1H-indazol-5-amine]	13.8		5.6	
c1cc(Nc2ccnc(N3CCNCC3)n2)cc(-c2cn[nH]c2)c1 [Example 347, N-(3-(1H-pyrazol-4-yl)phenyl)-2-(piperazin-1-yl)pyrimidin-4-amine]		17		IC50 [1]: > 10000 nM
Cc1cnc(N2CCCNC(C)C2)nc1Nc1ccc2[nH]ncc2c1 (stereo not shown) [Example 102, N-(5-methyl-2-(3-methyl-1,4-diazepan-1-yl)pyrimidin-4-yl)-1H-indazol-5-amine]	48.5	43.5		IC50 [1, 3]: 1100 nM
Cc1nc(N2CCNC(C(C)C)C2)nc(Nc2ccc3[nH]ncc3c2)c1C (stereo not shown) [Example 15, N-(2-(3-isopropylpiperazin-1-yl)-5,6-dimethylpyrimidin-4-yl)-1H-indazol-5-amine]	8	26.4		
Fc1cnc(N2CCN3CCNCC3C2)nc1Nc1ccc2[nH]ncc2c1 (stereo not shown) [Example 173, N-(5-fluoro-2-(octahydro-2H-pyrazino[1,2-a]pyrazin-2-yl)pyrimidin-4-yl)-1H-indazol-5-amine]	17.6		1.3	
Cc1cnc(N2CCNC(C)CC2)nc1Nc1ccc2[nH]ncc2c1 (stereo not shown) [Example 100, N-(5-methyl-2-(5-methyl-1,4-diazepan-1-yl)pyrimidin-4-yl)-1H-indazol-5-amine]	47.5	46.4		
c1cc2[nH]ncc2cc1Nc1nc(N2CCCNCC2)nc2c1CCCC2 [Example 9, 2-(1,4-diazepan-1-yl)-N-(1H-indazol-5-yl)-5,6,7,8-tetrahydroquinazolin-4-amine]	98.7	93.5		IC50 [2]: 1200 nM
CCC1CCN(c2ncc(F)c(Nc3ccc4[nH]ncc4c3)n2)CCN1 (stereo not shown) [Example 146, N-(2-(5-ethyl-1,4-diazepan-1-yl)-5-fluoropyrimidin-4-yl)-1H-indazol-5-amine]	71.8	50.2		IC50 [2]: 2060 nM
COc1cnc(N2CCNCC(C)C2)nc1Nc1ccc2[nH]ncc2c1 (stereo not shown) [Example 56, N-(5-methoxy-2-(6-methyl-1,4-diazepan-1-yl)pyrimidin-4-yl)-1H-indazol-5-amine]	87.1		29	
Cc1cc(Nc2ccc3[nH]ncc3c2)nc(N2CCNC(C(C)C)C2)n1 (stereo not shown) [Example 115, N-(2-(3-isopropylpiperazin-1-yl)-6-methylpyrimidin-4-yl)-1H-indazol-5-amine]	64.2	48.2		
Cc1cc(Nc2ccc3[nH]ncc3c2)nc(N2CCNC3(CC3)C2)n1 [Example 212, N-(6-methyl-2-(4,7-diazaspiro[2.5]octan-7-yl)pyrimidin-4-yl)-1H-indazol-5-amine]	91.9		16.1	
CC(C)C1CN(c2ncc(Cl)c(Nc3ccc4[nH]ncc4c3)n2)CCN1 (stereo not shown) [Example 185, N-(5-chloro-2-(3-isopropylpiperazin-1-yl)pyrimidin-4-yl)-1H-indazol-5-amine]	19.7	41.6		
Nc1cc(-c2ccc(Nc3ccnc(N4CCNCC4)n3)cc2)ccn1 [Example 359, N-(4-(2-aminopyridin-4-yl)phenyl)-2-(piperazin-1-yl)pyrimidin-4-amine]		21.8		IC50 [1]: > 10000 nM
COc1ccc(N[C@@H]2CCN(c3nccc(Nc4ccc5[nH]ncc5c4)n3)C2)cc1 [Example 246, (R)—N-(2-(3-((4-methoxyphenyl)amino)pyrrolidin-1-yl)pyrimidin-4-yl)-1H-indazol-5-amine]		1.8		ROCK2 % inh. @ [conc] ([1]; concentration not given): 0%
